Results on 24 compounds are retold here after patent publication US20250230226A1, “PLXDC1/PLXDC2 ACTIVATORS AND THEIR USE IN THE TREATMENT OF BLOOD VESSEL DISORDERS” (THE REGENTS OF THE UNIVERSITY OF CALIFORNIA, priority 2019, published 2025).

Assay [1] relates to CT26.CL25 colon cancer tumor endothelial cells. The assay is described as follows: Colon CT26 ex vivo model of tumor angiogenesis. Format: cell-based, mouse. The conditions noted are these: for cytotoxicity at 40 µM / cytotoxicity at 20 µM / cytotoxicity at 10 µM: Mus musculus, Endothelial cell, 48 h, read-out: Cell death. In a few lines: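 Cell death was read by FDA (live, green) and PI (dead, red) fluorescence imaging, e.g. 48 h after treatment. Treatment began once endothelial cells had grown out of Matrigel-embedded CT26 colon tumor fragments, typically after 7 days of culture in endothelial growth medium at 37 °C.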

Assay [2] relates to LL/2 lung cancer tumor endothelial cells. The assay is described as follows: Lung LL2 ex vivo model of tumor angiogenesis. The conditions noted are these: for Cell death: drug treatment for two days, ratio of red area to total endothelial cell area; for 48 hrs (morphology observations): LL/2 tumor endothelial cells; for cytotoxicity at 40 µM / cytotoxicity at 20 µM: Mus musculus, Endothelial cell, 48 h, read-out: Cell death. Format: cell-based, mouse. The method, boiled down:
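Live/dead imaging with FDA and PI, taken e.g. 48 h post-drug under fixed channel settings, measures treatment effects on endothelial cells sprouting from Lewis lung tumor explants. Explants were seeded in Matrigel drops and grown ~4 days in endothelial growth medium, 37 °C, 5% CO2, before dosing.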

`CCc1ccc(S(=O)(=O)c2cnc3ccc([N+](=O)[O-])cc3c2N2CCC(N3CCCCC3)CC2)cc1` [Compound 77]: the “48 hrs (morphology observations after 48 hours)” value in assay [1] (Conc. 40 μm) was found to be 0. For the same compound, the cytotoxicity at 40 µM in assay [1] is 40%. In addition, the Cell death in assay [2] (40 μm) amounted to 80%.
For the compound `CCCCOc1ccc(S(=O)(=O)c2cnc3ccc(OC(F)(F)F)cc3c2N2CCC(N3CCCCC3)CC2)cc1` [Compound 119], the “48 hrs (morphology observations after 48 hours)” value in assay [1] (Conc. 20 μm) amounted to 0. Moreover, the cytotoxicity at 20 µM in assay [1] came out at 50%. Moreover, in assay [2] (20 μm), the “48 hrs (morphology observations)” value was “*** (more than 50% but less than 100% of endothelial cells vesicularize in cell shape)” and the Cell death was found to be 100%.
In the case of `CCCCOc1ccc(S(=O)(=O)c2cnc3ccc(C(=O)OCC)cc3c2N2CCC(N3CCC(N4CCCCC4)CC3)CC2)cc1` [Compound 216], the “48 hrs (morphology observations after 48 hours)” value in assay [1] (Conc. 40 μm) is “**** (100% of endothelial cells vesicularize in cell shape and look flattened in morphology (indicating disintegration of the cell body))”. Further, the cytotoxicity at 40 µM in assay [1] and in assay [2] was 100% in each case. The “48 hrs (morphology observations)” value in assay [2] (40 μm) was “**** (100% of endothelial cells vesicularize in cell shape and look flattened in morphology (indicating disintegration of the cell body))”.
As for `CCCCCCCOc1ccc(S(=O)(=O)c2cnc3ccc([S+](C)[O-])cc3c2N2CCCN(C)CC2)cc1` (centres unmarked) [Compound 220], in assay [1] (Conc. 40 μm), the “48 hrs (morphology observations after 48 hours)” value was “**** (100% of endothelial cells vesicularize in cell shape and look flattened in morphology (indicating disintegration of the cell body))”. In addition, the cytotoxicity at 40 µM in assay [1] and in assay [2] was 100% throughout. The “48 hrs (morphology observations)” value in assay [2] (40 μm) was “**** (100% of endothelial cells vesicularize in cell shape and look flattened in morphology (indicating disintegration of the cell body))”.
With `CCc1ccc(S(=O)(=O)c2cnc3ccc(OC(F)(F)F)cc3c2N2CCCN(CC(=O)O)CC2)cc1` [Compound 42], in assay [1] (Conc. 40 μm), the “48 hrs (morphology observations after 48 hours)” value is 0. In addition, the cytotoxicity at 40 µM in assay [1] is 0%. In assay [2] (40 μm), the Cell death turned out to be 30%.
For `CCCCOc1ccc(S(=O)(=O)c2cnc3ccc(SC)cc3c2N2CCCN(CCN3CCCCC3)CC2)cc1` [Compound 206], the “48 hrs (morphology observations after 48 hours)” value in assay [1] (Conc. 40 μm) is “**** (100% of endothelial cells vesicularize in cell shape and look flattened in morphology (indicating disintegration of the cell body))”. For the same compound, the cytotoxicity at 40 µM in assay [1] is 100%. Besides, in assay [2] (20 μm), the “48 hrs (morphology observations)” value is 0 and the Cell death is given as 30%.
As to `COc1ccc(S(=O)(=O)c2cnc3ccc([N+](=O)[O-])cc3c2NN2CCN(C)CC2)cc1` [Compound 94], the “48 hrs (morphology observations after 48 hours)” value in assay [1] (Conc. 40 μm) was determined as 0. For the same compound, in assay [1], the cytotoxicity at 40 µM was 0%. Further, the Cell death in assay [2] (40 μm) is recorded as 20%.
`CCCCCCCOc1ccc(S(=O)(=O)c2cnc3ccc([S+](C)[O-])cc3c2N2CCC(N3CCN(CCO)CC3)CC2)cc1` (centres unmarked) [Compound 257]: the “48 hrs (morphology observations after 48 hours)” value in assay [1] (Conc. 10 μm) was “**** (100% of endothelial cells vesicularize in cell shape and look flattened in morphology (indicating disintegration of the cell body))”. In addition, the cytotoxicity at 10 µM in assay [1] was determined as 100%. The “48 hrs (morphology observations)” value in assay [2] (20 μm) is “**** (100% of endothelial cells vesicularize in cell shape and look flattened in morphology (indicating disintegration of the cell body))”. Moreover, the cytotoxicity at 20 µM in assay [2] is 100%.
For the compound `COc1ccc(S(=O)(=O)c2cnc3ccc(SC)cc3c2N2CCCN(C)CC2)cc1OC` [Compound 154], in assay [1] (Conc. 40 μm), the “48 hrs (morphology observations after 48 hours)” value is “* (50% or less of cells vesicularize in cell shape)”. The cytotoxicity at 40 µM in assay [1] and in assay [2] was 30% throughout. Further, in assay [2] (40 μm), the “48 hrs (morphology observations)” value is recorded as “* (50% or less of cells vesicularize in cell shape)”.
As for `CCCCOc1ccc(S(=O)(=O)c2cnc3ccc(OC(F)(F)F)cc3c2N2CCCN(C)CC2)cc1` [Compound 151], the “48 hrs (morphology observations after 48 hours)” value in assay [1] (Conc. 40 μm) is “**** (100% of endothelial cells vesicularize in cell shape and look flattened in morphology (indicating disintegration of the cell body))”. Besides, the cytotoxicity at 40 µM in assay [1] and in assay [2] was 100% each time. In addition, in assay [2] (40 μm), the “48 hrs (morphology observations)” value is “**** (100% of endothelial cells vesicularize in cell shape and look flattened in morphology (indicating disintegration of the cell body))”.
Regarding `CCCCOc1ccc(S(=O)(=O)c2cnc3ccc(SC)cc3c2N2CCC(N3CCC(O)CC3)CC2)cc1` [Compound 162], the “48 hrs (morphology observations after 48 hours)” value in assay [1] (Conc. 40 μm) was “*** (100% of endothelial cells vesicularize in cell shape)”. Also, in assay [2] (40 μm), the “48 hrs (morphology observations)” value is recorded as “*** (more than 50% but less than 100% of endothelial cells vesicularize in cell shape)” and the Cell death is 70%.
Turning to `CCN(CC)c1c(S(=O)(=O)c2ccc(OC)c(OC)c2)cnc2ccc(OC(F)(F)F)cc12` [Compound 68], the “48 hrs (morphology observations after 48 hours)” value in assay [1] (Conc. 40 μm) is “** (more than 50% but less than 100% of endothelial cells vesicularize in cell shape)”. In assay [1], the cytotoxicity at 40 µM came out at 50%. Moreover, in assay [2] (40 μm), the “48 hrs (morphology observations)” value is given as “*** (more than 50% but less than 100% of endothelial cells vesicularize in cell shape)” and the Cell death came to 80%.
`CCc1ccc(S(=O)(=O)c2cnc3ccc(OC(F)(F)F)cc3c2NCCO)cc1` [Compound 95]: the “48 hrs (morphology observations after 48 hours)” value in assay [1] (Conc. 40 μm) is reported as 0. For the same compound, in assay [1], the cytotoxicity at 40 µM amounted to 0%. Further, the Cell death in assay [2] (40 μm) stood at 10%.
Regarding `CCc1ccc(S(=O)(=O)c2cnc3ccc(OC(F)(F)F)cc3c2NN2CCN(C)CC2)cc1` [Compound 50], in assay [1] (Conc. 40 μm), the “48 hrs (morphology observations after 48 hours)” value was “*** (100% of endothelial cells vesicularize in cell shape)”. The cytotoxicity at 40 µM in assay [1] amounted to 100%. For the same compound, in assay [2] (40 μm), the “48 hrs (morphology observations)” value was “*** (more than 50% but less than 100% of endothelial cells vesicularize in cell shape)” and the Cell death came to 90%.
On the same counts, the results for `CCCCOc1ccc(S(=O)(=O)c2cnc3ccc(C(=O)N(CC)CC)cc3c2N2CCC(N3CCCCC3)CC2)cc1` [Compound 201] are “* (50% or less of cells vesicularize in cell shape)”, 10%, 0 and 30%.
Consider `CCCCOc1ccc(S(=O)(=O)c2cnc3ccc(C(=O)OCC)cc3c2N2CCC(N3CCCN(C)CC3)CC2)cc1` [Compound 211], for which, in assay [1] (Conc. 40 μm), the “48 hrs (morphology observations after 48 hours)” value is “**** (100% of endothelial cells vesicularize in cell shape and look flattened in morphology (indicating disintegration of the cell body))”. Also, the cytotoxicity at 40 µM in assay [1] and in assay [2] was 100% in each case. Moreover, the “48 hrs (morphology observations)” value in assay [2] (40 μm) is “**** (100% of endothelial cells vesicularize in cell shape and look flattened in morphology (indicating disintegration of the cell body))”.
As for `COc1ccc(S(=O)(=O)c2cnc3ccc([N+](=O)[O-])cc3c2-n2cncn2)cc1` [Compound 97], the “48 hrs (morphology observations after 48 hours)” value in assay [1] (Conc. 10 μm) was “*** (100% of endothelial cells vesicularize in cell shape)”. Also, the cytotoxicity at 10 µM in assay [1] was 100%. The Cell death in assay [2] (20 μm) is recorded as 50%.
As for `CCc1ccc(S(=O)(=O)c2cnc3ccc(OC(F)(F)F)cc3c2-n2ccnn2)cc1` [Compound 110], the “48 hrs (morphology observations after 48 hours)” value in assay [1] (Conc. 40 μm) is on record as “** (more than 50% but less than 100% of endothelial cells vesicularize in cell shape)”. Also, in assay [1], the cytotoxicity at 40 µM is 10%. In addition, in assay [2] (20 μm), the “48 hrs (morphology observations)” value is on record as “*** (more than 50% but less than 100% of endothelial cells vesicularize in cell shape)” and the Cell death worked out at 95%.
For `CCCCOc1ccc(S(=O)(=O)c2cnc3ccc([S+](C)[O-])cc3c2N2CCC(N3CCCN(C)CC3)CC2)cc1` (centres unmarked) [Compound 241], the “48 hrs (morphology observations after 48 hours)” value in assay [1] (Conc. 10 μm) is reported as 0. The cytotoxicity at 10 µM in assay [1] is 0%. Further, the Cell death in assay [2] (40 μm) was determined as 40%.
As to `CCc1ccc(S(=O)(=O)c2cnc3ccc([N+](=O)[O-])cc3c2N(CC)CC)cc1` [Compound 78], the “48 hrs (morphology observations after 48 hours)” value in assay [1] (Conc. 40 μm) amounted to 0. Further, in assay [1], the cytotoxicity at 40 µM came to 0%. Moreover, the Cell death in assay [2] (40 μm) amounted to 40%.
On the same counts, the results for `N#Cc1ccc(S(=O)(=O)c2cnc3ccc(OC(F)(F)F)cc3c2N2CCC(N3CCCCC3)CC2)cc1` [Compound 54] are 0, 10% and 50%.
As for `CCOC(=O)c1ccc2ncc(S(=O)(=O)c3ccc(CC)cc3)c(N3CCCN(C)CC3)c2c1` [Compound 63], the “48 hrs (morphology observations after 48 hours)” value in assay [1] (Conc. 40 μm) was “*** (100% of endothelial cells vesicularize in cell shape)”. In addition, the cytotoxicity at 40 µM in assay [1] came out at 70%. Besides, the Cell death in assay [2] (40 μm) is 50%.
As to `CCc1ccc(S(=O)(=O)c2cnc3ccc(OC(F)(F)F)cc3c2N2CCCN(CCN(CC)CC)CC2)cc1` [Compound 100], the “48 hrs (morphology observations after 48 hours)” value in assay [1] (Conc. 40 μm) is “**** (100% of endothelial cells vesicularize in cell shape and look flattened in morphology (indicating disintegration of the cell body))”. Further, the cytotoxicity at 40 µM in assay [1] and in assay [2] was 100% each time. In assay [2] (40 μm), the “48 hrs (morphology observations)” value was “**** (100% of endothelial cells vesicularize in cell shape and look flattened in morphology (indicating disintegration of the cell body))”.
Take `CCc1ccc(S(=O)(=O)c2cnc3ccc(OC(F)(F)F)cc3c2N2CCC(OCCN(CC)CC)CC2)cc1` [Compound 101]: the “48 hrs (morphology observations after 48 hours)” value in assay [1] (Conc. 20 μm) is reported as “* (50% or less of cells vesicularize in cell shape)”. Also, the cytotoxicity at 20 µM was 50% in assay [1] and 100% in assay [2]. Also, the “48 hrs (morphology observations)” value in assay [2] (20 μm) is on record as “*** (more than 50% but less than 100% of endothelial cells vesicularize in cell shape)”.
